US20140081017A1, “Histone Deacetylase Inhibitors for Enhancing Activity of Antifungal Agents” (METHYLGENE INC., priority 2012, published 2014)
In brackets after ≈: the same amount, converted by molar mass. Read-outs that look alike come from different tables or passages of the source.

How the values were obtained:
[1] = test system: Candida albicans; assay: Minimal Inhibitory Concentration (MIC) assay, broth microdilution per CLSI; format: cell-based; conditions: Candida albicans, read-out: Minimum Inhibitory Concentrations against Yeast Isolates, Candida albicans;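 also: two read times 24 hr and 48 hr of incubation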
Experimental: (§1) The in vitro activities of the inventive compounds (compound(s) herein) against fungi and/or yeasts were determined with isolates Candida albicans, Candida glabrata and Candida parapsilosis. The comparator compounds included fluconazole, caspofungin and amphotericin B.
(§2) The compounds were supplied as a powder, and were dissolved in dimethylsulfoxide (DMSO) the day of assay. Stock solutions were prepared at 10 mg/mL and diluted to a starting stock concentration of 2.56 mg/mL. Amphotericin B was dissolved in DMSO to a stock concentration of 2.56 mg/mL. Fluconazole was dissolved in deionized water to a stock concentration of 2.56 mg/mL. Caspofungin was received as a stock solution of 3.2 mg/mL in DMSO and was diluted to a starting stock concentration of 2.56 mg/mL.
(§3) The test organisms and reference isolates were streaked for isolation on Sabouraud agar medium (yeasts) or potato dextrose agar (fungi). Colonies were picked by swab from the medium and resuspended in the appropriate broth containing cryoprotectant. The suspensions were aliquoted into cryogenic vials and maintained at −80° C.
(§4) Prior to testing, the yeast isolates were streaked from the frozen vials onto Sabouraud dextrose agar. The plates were incubated overnight at 35° C. The fungal isolate was grown on potato dextrose agar slants and was incubated for 7-10 days at room temperature.
(§5) Both yeast and fungal isolates were tested in RPMI medium buffered with 0.165 M MOPS (3-(N-morpholino)propanesulfonic acid). The pH of the medium was adjusted to 7.0 with 1 N NaOH. The medium was sterile filtered using a 0.2 um PES (polyethersulfone) filter and stored at 4° C. until used.
(§6) The MIC assay method followed the procedure described by the Clinical and Laboratory Standards Institute (CLSI; 1, 2, 3) and employed automated liquid handlers to conduct serial dilutions and liquid transfers. Automated liquid handlers included the Multidrop 384 (Labsystems, Helsinki, Finland), Biomek 2000 and Biomek FX (Beckman Coulter, Fullerton Calif.). The wells in columns 2-12 in standard 96-well microdilution plates (Costar 3795) were filled with 150 ul of 100% DMSO. These would become the ‘mother plates’ from which ‘daughter’ or test plates would be prepared. The compounds (300 uL at 40× the desired top concentration in the test plates) were dispensed into the appropriate well in Column 1 of the mother plates. The Biomek 2000 was used to make serial 1:1 dilutions through Column 11 in the “mother plate”. The wells of Column 12 contained no compounds and were the organism growth control wells.
(§7) The daughter plates were loaded with 185 uL per well of RPMI described above using the Multidrop 384. The daughter plates were prepared using the Biomek FX which transferred 5 μL of the compound solution from each well of a mother plate to the corresponding well of the daughter plate in a single step.
(§8) Standardized inoculum of each organism was prepared per CLSI methods. For yeast isolates, colonies were picked from the streak plate and a suspension was prepared in 0.85% saline. For the fungal isolate, 1 mL of 0.85% saline was dispensed onto the potato dextrose agar slant that had been inoculated 7-10 days previously. Using a swab, a suspension of the fungus was made. After a short time to allow the heavy particles to settle out, a small quantity of the supernatant was dispensed into 0.85% saline and the suspension adjusted to equal a 0.5 McFarland turbidity standard. Both yeast and fungal isolates were diluted 1:100 in RPMI and then transferred to compartments of sterile reservoirs divided by length (Beckman Coulter). The Biomek 2000 was used to inoculate the plates. Daughter plates were placed on the Biomek 2000 work surface reversed so that inoculation took place from low to high compound concentration. The Biomek 2000 delivered 10 μL of standardized inoculum into each well. Thus, the wells of the daughter plates ultimately contained 185 uL of RPMI, 5 uL of the compound solution, and 10 uL of inoculum. […]

[2] = test system: Candida glabrata; assay: as above; format: cell-based; conditions: Nakaseomyces glabratus, read-out: Minimum Inhibitory Concentrations against Yeast Isolates, Candida glabrata;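 also: two read times 24 hr and 48 hr of incubation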
Experimental: as §1, §2, §3, §4, §5, §6, §7, §8

[3] = test system: Candida parapsilosis; assay: as above; format: cell-based; conditions: Lodderomyces parapsilosis, read-out: Minimum Inhibitory Concentrations against Yeast Isolates, Candida parapsilosis;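 also: two read times 24 hr and 48 hr of incubation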
Experimental: as §1, §2, §3, §4, §5, §6, §7, §8

[4] = test system: C. glabrata; assay: Checkerboard FIC assay in combination with fluconazole (MIC alone and in combination, FICI); format: cell-based, Candida glabrata; conditions: for FICI of combination resulting in fluconazole MIC of: 2 ug/mL / FICI of combination resulting in fluconazole MIC of: 4 ug/mL / FICI of combination resulting in fluconazole MIC of: 8 ug/mL: FICI calculated using a fluconazole MIC of 16 μg/mL; for FICI of combination resulting in fluconazole MIC of: 2 ug/mL (value in parenthesis) / FICI of combination resulting in fluconazole MIC of: 4 ug/mL (value in parenthesis) / FICI of combination resulting in fluconazole MIC of: 8 ug/mL (value in parenthesis): FICI using a fluconazole MIC of 128 μg/mL; for MIC: Nakaseomyces glabratus; for Concentration of Methylgene compound to synergize fluconazole MIC to 2 ug/mL / Concentration of Methylgene compound to synergize fluconazole MIC to 4 ug/mL / Concentration of Methylgene compound to synergize fluconazole MIC to 8 ug/mL: in combination with fluconazole; for Concentration of Methylgene compound to synergize fluconazole MIC to 2 ug/mL: fluconazole MIC lowered to 2 ug/mL; for Concentration of Methylgene compound to synergize fluconazole MIC to 4 ug/mL: fluconazole MIC lowered to 4 ug/mL; for Concentration of Methylgene compound to synergize fluconazole MIC to 8 ug/mL: fluconazole MIC lowered to 8 ug/mL; for Multiple of compound MIC to synergize fluconazole MIC to 2 ug/mL / Multiple of compound MIC to synergize fluconazole MIC to 4 ug/mL / Multiple of compound MIC to synergize fluconazole MIC to 8 ug/mL: concentration in combination as multiple of the compound's MIC alone; for Multiple of compound MIC to synergize fluconazole MIC to 2 ug/mL: fluconazole MIC 2 ug/mL; for Multiple of compound MIC to synergize fluconazole MIC to 4 ug/mL: fluconazole MIC 4 ug/mL; for Multiple of compound MIC to synergize fluconazole MIC to 8 ug/mL: fluconazole MIC 8 ug/mL
Experimental: The ability of the compounds to synergize with azoles against C. glabrata was evaluated by the checkerboard assay, a common laboratory method used to evaluate synergy, antagonism, and indifference using fractional inhibitory concentrations (FICs) and FIC indices (FICI).
The test compounds were supplied as a powder and dissolved in dimethylsulfoxide (DMSO) on the day of assay. Stock solutions were prepared at 640 ug/mL. Fluconazole was dissolved in deionized water to a stock concentration of 320 ug/mL. All test articles were in solution under these conditions.
as §3, §4, §5
FIC values were determined using a broth microdilution method (CLSI; 1, 3). To prepare the test plates, automated liquid handlers (Multidrop 384, Labsystems, Helsinki, Finland; Biomek 2000 and Biomek FX, Beckman Coulter, Fullerton Calif.) were used to conduct serial dilutions and liquid transfers.
The wells of standard 96-well microdilution plates (Costar 3795) were filled with 150 uL of DMSO in columns 2-12. Three hundred microliters of each test compound was added to each well in Column 1 of the plates. The Biomek 2000 was used to make eleven 2-fold serial dilutions in each of these “test compound mother” plates. The wells of the “fluconazole mother plates” were filled with 150 uL of sterile water in rows B-H. Row A of these plates was filled with 300 uL of the fluconazole stock solution. Serial 2-fold dilutions were then prepared from top to bottom by hand, using a multichannel pipette in rows B-G. The “daughter plates” were loaded with 180 uL of RPMI using the Multidrop 384. The Biomek FX was used to transfer 5 uL of compound solution from each well of a fluconazole mother plate to the corresponding well in all of the daughter plates in a single step. Then the Biomek FX was used to transfer 5 uL of compound solution from each well of a test compound mother plate to the corresponding well of the corresponding test compound daughter plate (already containing fluconazole at the appropriate concentrations) in a single step. Row H and Column 12 each contained serial dilutions of the test agent and fluconazole alone, respectively, for determination of the MIC.
Standardized inoculum of each organism was prepared per CLSI methods (CLSI; 1, 3). For yeast isolates, colonies were picked from the primary plate and a suspension was prepared in 0.85% saline to equal a 0.5 McFarland turbidity standard. For the fungal isolate, 1 mL of 0.85% saline was dispensed onto a potato dextrose agar slant onto which the isolate had been inoculated 7-10 days previously. Using a swab, a suspension of the fungus was made. After a short time to allow the heavy particles to settle out, a small quantity of the supernatant was dispensed into 0.85% saline and the suspension was adjusted to equal a 0.5 McFarland turbidity standard. Both yeast and fungal isolates were diluted 1:100 in RPMI and then transferred to compartments of sterile reservoirs divided by length (Beckman Coulter). The Biomek 2000 was used to inoculate the plates. […]

[5] = 24 hr reading (first value of cell 24 hr/48 hr)
[6] = 48 hr reading (second value of cell 24 hr/48 hr)
[7] = MIC of the example compound alone against C. glabrata in the checkerboard assay, approximately 48 hr, read-out: Methylgene MIC
[8] = test compound alone, C. glabrata, approx. 48 hr at 35° C., read-out: Compound MIC

Row | MIC [1, 5] [µg/mL] | MIC [1, 6] [µg/mL] | MIC [2, 5] [µg/mL] | MIC [2, 6] [µg/mL] | MIC [3, 5] [µg/mL] | MIC [3, 6] [µg/mL] | FICI of combination resulting in fluconazole MIC of: 2 ug/mL ([4]; C. glabrata) | FICI of combination resulting in fluconazole MIC of: 4 ug/mL ([4]; C. glabrata) | FICI of combination resulting in fluconazole MIC of: 8 ug/mL ([4]; C. glabrata) | FICI of combination resulting in fluconazole MIC of: 2 ug/mL (value in parenthesis) ([4]; C. glabrata) | FICI of combination resulting in fluconazole MIC of: 4 ug/mL (value in parenthesis) ([4]; C. glabrata) | FICI of combination resulting in fluconazole MIC of: 8 ug/mL (value in parenthesis) ([4]; C. glabrata) | MIC [4, 7] [µg/mL] | MIC [4, 8] [µg/mL] | Concentration of Methylgene compound to synergize fluconazole MIC to 2 ug/mL ([4]; C. glabrata) [µg/mL] | Concentration of Methylgene compound to synergize fluconazole MIC to 4 ug/mL ([4]; C. glabrata) [µg/mL] | Concentration of Methylgene compound to synergize fluconazole MIC to 8 ug/mL ([4]; C. glabrata) [µg/mL] | Multiple of compound MIC to synergize fluconazole MIC to 2 ug/mL [4] | Multiple of compound MIC to synergize fluconazole MIC to 4 ug/mL [4] | Multiple of compound MIC to synergize fluconazole MIC to 8 ug/mL [4] | SMILES
1 | > 8 | > 8 | 0.5 (≈ 1.4 µM) | > 8 | > 8 | > 8 | > 0.125 | > 0.188 | > 0.281 | > 0.078 | > 0.094 | > 0.094 | > 4 | > 4 | 0.5 | 0.5 | 0.25 | – | – | – | O=C(Cc1ccc(CCCCc2ccc(CC(=O)NO)cc2)cc1)NO [Example 7, 2,2′-(4,4′-(butane-1,4-diyl)bis(4,1-phenylene))bis(N-hydroxyacetamide)]
2 | 0.25 (≈ 0.864 µM) | 0.25 (≈ 0.864 µM) | 0.12 (≈ 0.415 µM) | 0.12 (≈ 0.415 µM) | 0.12 (≈ 0.415 µM) | 0.25 (≈ 0.864 µM) | 0.543 | 0.605 | 0.730 | 0.496 | 0.511 | 0.543 | 0.25 | 0.25 | 0.12 | 0.12 | 0.12 | (½x) | (½x) | (½x) | O=C(Cc1ccc(CCCCC2CCCCC2)cc1)NO [Example 8, 2-(4-(4-cyclohexylbutyl)phenyl)-N-hydroxyacetamide]
3 | 1 (≈ 3.19 µM) | 1 (≈ 3.19 µM) | 0.5 (≈ 1.6 µM) | > 4 | 1 (≈ 3.19 µM) | 1 (≈ 3.19 µM) | 0.625 | 0.490 | 0.620 | 0.516 | 0.271 | 0.183 | 0.5 | 0.5 | 0.25 | 0.12 | 0.06 | (½x) | (¼x) | (⅛x) | COc1ccc(CCCCc2ccc(CC(=O)NO)cc2)cc1 [Example 9, N-hydroxy-2-(4-(4-(4-methoxyphenyl)butyl)phenyl)acetamide]
4 | > 64 | > 64 | > 64 | > 64 | > 64 | > 64 | 0.375 | 0.500 | 0.625 | 0.266 | 0.281 | 0.188 | 2 | 2 | 0.5 | 0.5 | 0.25 | (¼x) | (¼x) | (⅛x) | COCCOCCOCCOCCOCCOc1ccc(CCCCc2ccc(CC(=O)NO)cc2)cc1 [Example 10, 2-(4-(4-(4-(2,5,8,11,14-pentaoxahexadecan-16-yloxy)phenyl)butyl)phenyl)-N-hydroxyacetamide]
